Several values for one entry are separate records, joined by “and”; a condition that tells them apart may be missing. Equal values may be shown once. Where a name gives a salt, the structure may show the parent alone.
Key:
kainate receptors = assay: Whole cell patch clamp, kainate-induced current in cultured chick spinal cord neurons; type: cell-based; settings: 100 μM steroid; -70 mV; sulfate
Experimental: (§1) Cultures of dissociated spinal cord neurons were prepared as previously described (Farb, D. H., et al., J. Cell Biol., 80:651-661 (1979)). Briefly, the dissociated cells from 7-day chick embryos were plated on collagen-coated 35-mm tissue culture dishes in Eagle's minimum essential medium supplemented with 2.4 mM glutamine, 10% (v/v) heat-inactivated horse serum, 5% (v/v) chick embryo extract and antibiotics. Cultures were maintained in a humidified atmosphere of 5% CO2, 95% air at 37°. Cytarabine (1 μM) was added to the culture medium after 36 hr. of the initial plating to inhibit the proliferation of non-neuronal cells. One day later, this medium was replaced with a similar medium supplemented with 20.5 mM glucose, 19 mM KCl, and 2.5% chick embryo extract. Fresh medium was added twice weekly. Cultured neurons were used in experiments within 2-4 weeks after plating.
(§2) Experiments were carried out in 35-mm tissue culture dishes on the stage of an inverted phase contrast microscope. Whole cell currents were recorded by the whole cell variant of the patch clamp technique (Hamill, O. P., et al., Pfagers Arch. 891:85-100 (1981)). Patch electrodes had tip openings of about […] and resistances of 3-8 M.OMEGA. using an intracellular solution comprised of the following (in mM): 140 CsCl, 11 EGTA, and 10 HEPES (pH adjusted to 7.2 with CsOH). […]

AMPA receptors = assay: Whole cell patch clamp, AMPA-induced current in cultured chick spinal cord neurons; type: cell-based; settings: 100 μM steroid; -70 mV; sulfate
Experimental: as §1, §2

[1] = tested on: focal cerebral ischemia (MCA occlusion) in rats; assay: Middle cerebral artery occlusion cerebral ischemia test; type: in vivo; settings: for cortical infarct volume: treatment delayed until 30 min. after initiation of ischemia
Experimental: Male Wistar rats (200-250 g) were used. Anesthesia was induced with 3% halothane in 70% nitrogen balanced with oxygen. Rats were intubated and artificially ventilated with 2% halothane in a mixture of 30% oxygen and 70% nitrogen. Body temperature was maintained at 37.5° C. during surgery by means of a warming pad with a rectal probe connected to a feedback control unit. Both common carotid arteries (CCA) were isolated, and a loose silk ligature was placed around each artery. A vertical skin incision was made between the left orbit and the auditory canal. Under constant saline irrigation the posterior part of the zygoma was removed and a small opening (2.0/2.5 mm) drilled dorso-rostrally to the foramen ovale. The dura was opened with a microsurgical hook and the brain gently retracted with a small spatula to expose the bifurcation of the internal carotid artery and middle cerebral artery. After permanent ligation of the ipsilateral CCA, the middle cerebral artery (MCA) was coagulated from its origin to the olfactory tract. The contralateral CCA was occluded for a period of 2 hours. A bolus intravenous injection (1 ml) of test compound dissolved in 5% DMSO, 10% 2-hydroxy propyl-β-cyclodextrin in 100 mM sodium phosphate buffer, pH 7.4, was given either immediately after MCA occlusion or 30 minutes after MCA occlusion. An intravenous infusion of the test drug in the same vehicle was initiated immediately after the bolus injection. Twenty-two hours after MCA occlusion rats were euthanized, and the brains were sectioned into 2 mm slices and stained with tetrazoliumred (2,3,5-triphenyl tetrazolium chloride). Areas of brain damage were assessed using an image analyzer with the NIH Image program, and the volumes of cortical and subcortical infarction were estimated by integration of areas in serial.
Pregnanolone hemisuccinate produced significant neuroprotection in the MCAO cerebral ischemia model. […] Focal cerebral ischemia was induced in the left hemisphere of male rats by proximal coagulation of the middle cerebral artery. In addition, the ipsilateral common carotid artery was permanently occluded and the contralateral common carotid artery was occluded for 2 h. Five minutes after initiation of ischemia, rats were injected with an i.v. loading dose of 6.9 mg/kg 5β3αHS, followed by i.v. infusion of 5β3αHS at 6.9 mg/kg/h. […] Control rats were treated with vehicle. Infusion of 5β3αHS was continued for an additional 20 h, at which time the rats were sacrificed, and their brains were sliced and stained with the vital stain 2,3,5 triphenyl tetrazolium Cl.

[2] = tested on: formalin pain in the mouse; assay: Formalin paw lick analgesic test; type: in vivo; settings: mice, i.p., 15 mg/kg
Experimental: Male CD-1 mice (Charles River laboratories, Wilmington, Mass.) weighing 20-25 g were used for the formalin test. Mice were injected intraperitoneally with the test compound dissolved in DMSO or with vehicle. Five minutes later 20 μl of 1% formalin was injected into the hind paw of each mouse. The time spent licking the injected paw was monitored for 25 minutes. The early phase of response was between 0-5 minutes and the late phase response was defined as the response between 5-25 minutes.

NMDA receptor = settings: Wu et al. 1991, cited from earlier work
[3] = i.v. 6.9 mg/kg loading dose then 6.9 mg/kg/h, started 5 min. after onset of ischemia, versus vehicle

SMILES: CC(=O)[C@H]1CC[C@H]2[C@@H]3CC[C@@H]4C[C@H](OS(=O)(=O)O)CC[C@]4(C)[C@H]3CC[C@]12C [5β3αS, 3α-hydroxy-5β-pregnan-20-one sulfate]
- inhibition of the 50 μM kainate-induced current (kainate receptors): 37% and 37.4±4.7%
- inhibition of the 25 μM AMPA-induced current (AMPA receptors): 29% and 29.0±3.1%

SMILES: CC(=O)[C@H]1CC[C@H]2[C@@H]3CC[C@@H]4C[C@H](OC(=O)CCC(=O)O)CC[C@]4(C)[C@H]3CC[C@]12C [5β3αHS, 3α-hydroxy-5β-pregnan-20-one hemisuccinate]
- sedation ([1]; i.v. 6.9 mg/kg loading dose then 6.9 mg/kg/h): Little or no sedation
- reduction in cortical infarct volume [1, 3]: 47±10%
- reduction in subcortical infarct volume [1, 3]: 26±6%
- cortical infarct volume [1]: significantly reduced
- cortical infarct volume ([1]; listed as Pregnanolone hemisuccinate): significantly decreased
- infarction volumes of the cortical and subcortical brain regions ([1]; treatment immediately after cerebral ischemia): significantly decreased
- early phase response, formalin paw lick ([2]; 0-5 minutes): no effect on the early response
- late phase response, formalin paw lick ([2]; 5-25 minutes): effective in blocking the late phase response

SMILES: CC(=O)C1CCC2C3CC=C4CC(OS(=O)(=O)O)CCC4(C)C3CCC12C (stereo not drawn) [PS, pregnenolone sulfate]
- potentiation of the NMDA response (NMDA receptor): 197%
- EC50 (NMDA receptor; read-out: EC50 for potentiation of the NMDA response): 57 µM
